Results on two compounds are retold here after US20200038418A1, “METHODS OF TREATING AUTISM SPECTRUM DISORDER USING AMINOSTEROL COMPOSITIONS” (Enterin, Inc., priority 2018, published 2020).

The conditions of data set [1]: single and repeat intravenous administration, alone or in combination; cited from earlier work.
Data set [2] relates to IPANs (intrinsic primary afferent neuron). The experiment in a line: Perfusion of isolated segment of bowel from the PD mouse model. The settings on record: perfusion through the lumen of isolated bowel segment from PD mouse model.
Data set [3] has as its system mice with constipation due to overexpression of human αS. The experiment in a line: Gastrointestinal motility in mouse models of PD. The class given is in vivo.
The conditions of data set [4]: intravenous administration, prior studies; cited from earlier work.
For data set [5] the following is noted: systemic administration, mice; cited from earlier work.

Consider `CC(C)[C@@H](CC[C@@H](C)[C@H]1CC[C@H]2[C@@H]3[C@H](O)C[C@H]4C[C@@H](NCCCNCCCCN)CC[C@]4(C)[C@H]3CC[C@]12C)OS(=O)(=O)O.C[C@H](O)C(=O)O.C[C@H](O)C(=O)O` [squalamine dilactate salt], for which the dose well tolerated result in data set [1] was “at least 300 mg/m^2”.

For `CC(C)[C@@H](CC[C@@H](C)[C@H]1CC[C@H]2[C@@H]3[C@H](O)C[C@H]4C[C@@H](NCCCNCCCCN)CC[C@]4(C)[C@H]3CC[C@]12C)OS(=O)(=O)O` [squalamine], the “effect on IPANs and peristaltic contractions” value in data set [2] was “excitation of IPANs”. The gastro-intestinal motility entry in data set [3] (orally administered, mice with constipation due to overexpression of human αS) was “stimulates gastro-intestinal motility”. Further, the “effect on gastrointestinal dysmotility” value in data set [3] (several mouse models of PD) was “reverse gastrointestinal dysmotility”. The gastrointestinal motility result in data set [4] is recorded as “not associated with increased gastrointestinal motility”. Besides, the clearance and excretion result in data set [5] was “cleared by the liver and excreted as the intact molecule”.
